Here are results for 13 compounds from ChEMBL document CHEMBL1148396, “Structure-activity relationships of N-acyl pyrroloquinolone PDE-5 inhibitors” (J Med Chem, 2004).

The target of this experiment is cGMP-specific 3',5'-cyclic phosphodiesterase (Homo sapiens, UniProt O76074). Nature of the experiment: Inhibitory activity against human Phosphodiesterase 5.
What is called Ki is a measure of affinity in units of concentration, obtained from inhibition or displacement. A lower Ki goes with higher affinity. On to `O=C(Cc1ccccc1)N1Cc2c(nc3ccccc3c2O)C1c1ccc2c(c1)OCO2` (stereo not drawn), for which the inhibition constant (Ki) was determined as 12.5 nM. With `O=C(OCc1ccccc1)N1Cc2c(nc3ccccc3c2O)C1c1ccc2c(c1)OCO2` (stereo not drawn) the figure was 0.58 nM; with `O=C(/C=C/c1ccccc1)N1Cc2c(nc3ccccc3c2O)C1c1ccc2c(c1)OCO2` (stereo not drawn), 0.22 nM. With `O=S(=O)(Cc1ccccc1)N1Cc2c(nc3ccccc3c2O)C1c1ccc2c(c1)OCO2` (stereo not drawn) the figure was 113 nM; with `O=C(OCc1ccncc1)N1Cc2c(nc3ccccc3c2O)C1c1ccc2c(c1)OCO2` (stereo not drawn), 0.29 nM.

As to `O=C(OCc1ccncc1)N1Cc2c(nc3ccccc3c2O)[C@@H]1c1ccc2c(c1)OCO2`, the Ki is 3.48 nM.

In the case of `O=S(=O)(/C=C/c1ccccc1)N1Cc2c(nc3ccccc3c2O)C1c1ccc2c(c1)OCO2` (stereo not drawn), the Ki was found to be 118 nM. With `CN(Cc1ccccc1)C(=O)N1Cc2c(nc3ccccc3c2O)C1c1ccc2c(c1)OCO2` (stereo not drawn) the figure was 11 nM. With `O=C(NCc1ccccc1)N1Cc2c(nc3ccccc3c2O)C1c1ccc2c(c1)OCO2` (stereo not drawn) the figure was 1.06 nM.

As to `O=C(C#Cc1ccccc1)N1Cc2c(nc3ccccc3c2O)C1c1ccc2c(c1)OCO2` (stereo not drawn), the Ki worked out at 0.35 nM.

`O=C(CCc1ccccc1)N1Cc2c(nc3ccccc3c2O)C1c1ccc2c(c1)OCO2` (stereo not drawn): the inhibition constant (Ki) came to 4.53 nM. In turn, `O=C(OCc1ccncc1)N1Cc2c(nc3ccccc3c2O)[C@H]1c1ccc2c(c1)OCO2` had a Ki of 0.23 nM. The compound `Oc1c2c(nc3ccccc13)C(c1ccc3c(c1)OCO3)N(C/C=C/c1ccccc1)C2` (stereo not drawn) had a Ki of 23.3 nM.
